According to ChEMBL document CHEMBL4715725, “Structure-activity relationship studies on acremomannolipin A, the potent calcium signal modulator with a novel glycolipid structure 4: Role of acyl side chains on d-mannose” (Eur J Med Chem, 2016):
The source made the active and inactive calls. No cut-off for these calls is given here.

test system: Schizosaccharomyces pombe; test: Suppression of Cl-sensitive growth defect in Schizosaccharomyces pombe harboring h+leu1 ura4-D18 ppb1::ura4+ mutant assessed as colony formation at 100 uM measured after 3 days in presence of MgCl2 by disc filter paper; type: functional, organism-based; conditions: time 3.0 day

SMILES | Activity
CCCCCCCC(=O)O[C@@H]1[C@H](OC[C@@H](O)[C@@H](O)[C@H](O)[C@H](O)CO)O[C@H](COC(=O)CCCC)[C@@H](OC(=O)CCCC)[C@@H]1OC(=O)CCCC | Active
CCCCCCCC(=O)O[C@@H]1[C@H](OC[C@@H](O)[C@@H](O)[C@H](O)[C@H](O)CO)O[C@H](COC(=O)CCC)[C@@H](OC(=O)CCC)[C@@H]1OC(=O)CCC | Active
CCCCCCCCCCCCCC(=O)O[C@@H]1[C@H](OC[C@@H](O)[C@@H](O)[C@H](O)[C@H](O)CO)O[C@H](COC(=O)CCCCC)[C@@H](OC(=O)CCCCC)[C@@H]1OC(=O)CCCCC | Active
CCCCCCCC(=O)O[C@@H]1[C@H](OC[C@@H](O)[C@@H](O)[C@H](O)[C@H](O)CO)O[C@H](CO)[C@@H](O)[C@@H]1OC(=O)CCCCC | inactive
CCCCCC(=O)OC[C@H]1O[C@@H](OC[C@@H](O)[C@@H](O)[C@H](O)[C@H](O)CO)[C@@H](OC(=O)CCCCC)[C@@H](OC(=O)CCCCC)[C@@H]1OC(=O)CCCCC | Active
CCCCCCCC(=O)O[C@@H]1[C@H](OC[C@@H](O)[C@@H](O)[C@H](O)[C@H](O)CO)O[C@H](COC(=O)CCCCC)[C@@H](OC(=O)CCCCC)[C@@H]1OC(=O)CCCCC | Active
CCCCCCCC(=O)O[C@@H]1[C@H](OC[C@@H](O)[C@@H](O)[C@H](O)[C@H](O)CO)O[C@H](COC(=O)CCCCCC)[C@@H](OC(=O)CCCCCC)[C@@H]1OC(=O)CCCCCC | Active
CCCCCC(=O)OC[C@H]1O[C@@H](OC[C@@H](O)[C@@H](O)[C@H](O)[C@H](O)CO)[C@@H](OC(=O)CCCC)[C@@H](OC(=O)CCCCC)[C@@H]1OC(=O)CCCCC | Active
CCCCCCCC(=O)OC[C@H]1O[C@@H](OC[C@@H](O)[C@@H](O)[C@H](O)[C@H](O)CO)[C@@H](OC(=O)CCCCCCC)[C@@H](OC(=O)CCCCCCC)[C@@H]1OC(=O)CCCCCCC | Active
CCCCCCCC(=O)O[C@@H]1[C@H](OC[C@@H](O)[C@@H](O)[C@H](O)[C@H](O)CO)O[C@H](COC(=O)CCCCC)[C@@H](OC(=O)CCCCC)[C@@H]1O | inactive
CCCCCC(=O)OC[C@H]1O[C@@H](OC[C@@H](O)[C@@H](O)[C@H](O)[C@H](O)CO)[C@@H](OC(=O)CCC)[C@@H](OC(=O)CCCCC)[C@@H]1OC(=O)CCCCC | Active
CCCCCCCCC(=O)O[C@@H]1[C@H](OC[C@@H](O)[C@@H](O)[C@H](O)[C@H](O)CO)O[C@H](COC(=O)CCCCC)[C@@H](OC(=O)CCCCC)[C@@H]1OC(=O)CCCCC | Active
CCCCCCCC(=O)O[C@@H]1[C@H](OC[C@@H](O)[C@@H](O)[C@H](O)[C@H](O)CO)O[C@H](COC(=O)CC)[C@@H](OC(=O)CC)[C@@H]1OC(=O)CC | Active
CCC(=O)OC[C@H]1O[C@@H](OC[C@@H](O)[C@@H](O)[C@H](O)[C@H](O)CO)[C@@H](OC(=O)CC)[C@@H](OC(=O)CC)[C@@H]1OC(=O)CC | Active
CCCCCCCCCC(=O)O[C@@H]1[C@H](OC[C@@H](O)[C@@H](O)[C@H](O)[C@H](O)CO)O[C@H](COC(=O)CCCCC)[C@@H](OC(=O)CCCCC)[C@@H]1OC(=O)CCCCC | Active
CCCCCCCCCCCCCCCC(=O)O[C@@H]1[C@H](OC[C@@H](O)[C@@H](O)[C@H](O)[C@H](O)CO)O[C@H](COC(=O)CCCCC)[C@@H](OC(=O)CCCCC)[C@@H]1OC(=O)CCCCC | Active
CCCCCC(=O)OC[C@H]1O[C@@H](OC[C@@H](O)[C@@H](O)[C@H](O)[C@H](O)CO)[C@@H](O)[C@@H](OC(=O)CCCCC)[C@@H]1OC(=O)CCCCC | inactive
CCCCCCC(=O)OC[C@H]1O[C@@H](OC[C@@H](O)[C@@H](O)[C@H](O)[C@H](O)CO)[C@@H](OC(=O)CCCCCC)[C@@H](OC(=O)CCCCCC)[C@@H]1OC(=O)CCCCCC | Active
CCCCCCC(=O)O[C@@H]1[C@H](OC[C@@H](O)[C@@H](O)[C@H](O)[C@H](O)CO)O[C@H](COC(=O)CCCCC)[C@@H](OC(=O)CCCCC)[C@@H]1OC(=O)CCCCC | Active
CCCCC(=O)OC[C@H]1O[C@@H](OC[C@@H](O)[C@@H](O)[C@H](O)[C@H](O)CO)[C@@H](OC(=O)CCCC)[C@@H](OC(=O)CCCC)[C@@H]1OC(=O)CCCC | Active
CCCCCCCCCCC(=O)O[C@@H]1[C@H](OC[C@@H](O)[C@@H](O)[C@H](O)[C@H](O)CO)O[C@H](COC(=O)CCCCC)[C@@H](OC(=O)CCCCC)[C@@H]1OC(=O)CCCCC | Active
CCCCCCCCCCCC(=O)O[C@@H]1[C@H](OC[C@@H](O)[C@@H](O)[C@H](O)[C@H](O)CO)O[C@H](COC(=O)CCCCC)[C@@H](OC(=O)CCCCC)[C@@H]1OC(=O)CCCCC | Active
CCCC(=O)OC[C@H]1O[C@@H](OC[C@@H](O)[C@@H](O)[C@H](O)[C@H](O)CO)[C@@H](OC(=O)CCC)[C@@H](OC(=O)CCC)[C@@H]1OC(=O)CCC | Active
CCCCCC(=O)OC[C@H]1O[C@@H](OC[C@@H](O)[C@@H](O)[C@H](O)[C@H](O)CO)[C@@H](OC(=O)CC)[C@@H](OC(=O)CCCCC)[C@@H]1OC(=O)CCCCC | Active
